{"source": "paper PMC10628858", "about": "“Investigation of new ferrocenyl-artesunate derivatives as antiparasitics” (Dalton Transactions (Cambridge, England : 2003), 2023)", "key": {"T. gondii (ΔKu80:mNeon)": {"tested_on": "T. gondii (ΔKu80:mNeon)", "assay": "Immunofluorescence microscopy of intracellular T. gondii", "format": "cell-based, Toxoplasma gondii", "conditions": "5 μM; for Parasite replication: 24 hours", "protocol": "To determine morphological changes associated with drug treatment, immunofluorescence microscopy of T. gondii was performed after 24 hours or 48 hours of drug treatment at a concentration of 5 μM.\nSince artemisinin has previously been reported to accumulate in the membrane of P. falciparum due to its affinity for neutral lipids,[46] it was hypothesized that the complex C3 may be doing the same thing in T. gondii. Then, upon activation of the endoperoxide bridge, this causes oxidative damage to the membranes, leading to disruption and release of parasite cytosolic contents.\nCoverslips preseeded with HFF cells were infected with ΔKu80:mNeonGreen and incubated at 37 °C for 1 h to allow invasion. Following this, drug (5 μM) was added, and the plates placed back in the incubator for 24 hours. Cells were washed with 1 mL of sterile PBS, which was then again removed and 500 μL of 4% paraformaldehyde (PFA) was added and incubated at room temperature for 20 minutes. The PFA was removed, cell washed once with PBS. Cells were blocked and permeabilisated with incubation 500 μL of 2% bovine serum albubin (BSA), 0.5% Triton X-100 in PBD overnight at 4 °C. The coverslips were then removed and submerged in distilled water three times and mounted using Fluoromount with DAPI (Southern Biotech). The slides were then visualized using a DeltaVision fluorescent microscope (Applied Precision) and processed using SoftWoRx and FIJI software."}, "[1]": {"assay": "Cyclic voltammetry (oxidation/reduction potentials)", "format": "physicochemical", "conditions": "Ag/AgCl electrode, scan rate 100 mV s^−1, 0.100 M [NBu4][PF6] in MeCN"}, "HEK293 cells": {"tested_on": "HEK293 cells", "assay": "MTT cell viability assay, HEK293", "format": "cell-based, human", "conditions": "for IC50: 48 h", "protocol": "To assess the cytotoxicity of the four compounds a MTT cell viability assay using human embryonic kidney (HEK293) and human prostatic (PNT1A) cell lines were performed. […] The long chain compounds C1 and C3 were also shown to be non-cytotoxic towards the HEK293 cell line.\nThe immortalised human prostatic epithelial cell line, PNT1A (Sigma Aldrich, 95012614) was cultured in RPMI-1640 containing 10% foetal calf serum (Life Technologies, South Africa). The human embryonic kidney cell line HEK293 (ATCC) was cultured in DMEM (Life Technologies, South Africa). Both cell lines were cultured at 37 °C under 5% CO2 with 1% penicillin and streptomycin. Cancer cell cytotoxicity was evaluated using the MTT viability assay according to our previous method.[49] Briefly, cells were seeded at a density of 3 × 10^3 cells per well in 96-well plates and allowed to settle overnight. A 100 mM stock of C1/C2 and a 50 mM stock solution of C3/C4 in DMSO was prepared from which dilutions were made. The compound was then added to the cells in triplicate to obtain the indicated concentrations and 0.1% DMSO. Controls included cells treated with […] DMSO alone. After 48 h, 10 μL of 5 mg mL^−1 MTT (3-(4,5-dimethylthiazol-2-yl)-2,5-diphenyltetrazolium bromide) (Sigma-Aldrich) was added, and incubated with the cells for 4 h, followed by addition of 100 μL 10% SLS, 0.01 M HCL. The plates were read at 595 nm on a Multiscan FC plate reader (Thermo Scientific) and the data was fitted to a variable slope dose–response curve using Graphpad prism v6 to obtain the cytotoxicity IC50. The assay was repeated independently three times where inhibition was observed."}, "[2]": {"assay": "Kinetic aqueous solubility, turbidimetric assay", "format": "physicochemical", "conditions": "turbidimetric assay, buffer not named", "protocol": "The kinetic solubility of the complexes was determined by means of a turbidimetric assay. The complexes were first dissolved in dimethyl sulfoxide (DMSO) which was then serially diluted in either phosphate buffered saline (PBS) or 4-(2-hydroxyethyl)-1-piperazineethanesulfonic acid (HEPES). The extent of precipitation was then measured using the absorbance at 620 nm.\nPBS was prepared by dissolving one PBS tablet in 200 mL of distilled water at 25 °C yielding a buffered solution containing 10 mM phosphate buffer, 3.0 mM KCl and 140 mM NaCl. The pH was then confirmed to be at 7.4 with a pH meter. A 0.025 M HEPES buffer was prepared by dissolving HEPES free acid 5.00 mmol in distilled water (±180 mL) and titrating the solution with 0.100 M NaOH until a pH 7 was reached, the volume was then made up to 200 mL using distilled water. A 10.0 mM stock of each drug was prepared in DMSO. […] 4 μL of the drugs was then pipetted into a 96-well plate loaded with 196 μL of either the desired buffer solution or DMSO. The test plates were then incubated at 37 °C for 4 hours following which the UV-Vis absorbance was measured at 620 nm and the absorbances corrected by subtracting the blank."}, "P. falciparum, NF54": {"tested_on": "P. falciparum, NF54", "assay": "P. falciparum growth inhibition assay (Malstat)", "format": "cell-based, Plasmodium falciparum", "conditions": "72 h, maximum concentration tested 6000 nM, three independent experiments in triplicate, ± SEM; read-out: IC50 against P. falciparum, NF54", "protocol": "The antimalarial activities of C1 to C4 and F1 to F3 were determined against the wild-type drug sensitive strain of P. falciparum, NF54. […]. Further, a close link between activity and oxidation potentials of the drugs was found. The lower the oxidation potential of the ferrocene moiety, the higher the activity of the final compound, giving directions for future compound development.\nThe drugs were prepared as 10 mM stocks in sterile DMSO. The drugs were then diluted using freshly prepared growth medium to the desired testing concentrations. Chloroquine and artesunate were used as standards. A full dose–response was preformed using a 96-well plate assay and the IC50 values determined. The maximum concentration tested was 6 μM which was then serially diluted 2-fold in growth media. The plates were incubated at 37 °C for 72 h at 3% O2 and 4% CO2. After 72 h the wells were resuspended and 15 μL of the suspension was transferred to a duplicate plate containing 100 μL of Malstat reagent and 25 μL of nitroblue tetrazolium solution. The plates were allowed 20 minutes in the dark to develop and the absorbance of each well was measured using UV-Vis at 620 nm."}, "[3]": {"assay": "Stability on HPLC in an aqueous environment", "format": "physicochemical", "conditions": "aqueous environment (H2O/MeOH)", "protocol": "Resonances belonging to the unsubstituted cyclopentadienyl ring of the ferrocene appeared as a singlet between 4.17 and 4.20 ppm and two triplets which correspond to the substituted ring.\nPurity analysis was performed on an Agilent 1260 Infinity II high-performance liquid chromatography (HPLC) system with a DAD detector. A Kinetex C18 100 Å column was used with dimensions, 150 × 4.6 mm with a 5 μm […]. A mobile phase of (A) H2O (B) MeOH was used at gradients of t = 0 min 10% B, t = 15 min 80% B, t = 35 min 80% B, t = 37 min 10% B and t = 45 min 10% B over a 45 min period. The flow rate was set to 1 mL min^−1, and the detection wavelength was set at 260 nm with the reference wavelength at 360 nm. 50 μL sample was injected, with needle washes of MeOH between injections. The peaks were manually integrated to gain the percentage area. Samples were dissolved in 10% MeOH/90% H2O at 100 μM concentrations."}}, "data": [{"smiles": "CC1CCC2C(C)C(OC(=O)CCC(=O)OCCNC(=O)[c-]3cccc3)OC3OC4(C)CCC1C32OO4.[Fe+2].c1cc[cH-]c1", "note": "(stereo not drawn) [Compound C1]", "values": [{"measurement": "Parasite replication", "setting": "T. gondii (ΔKu80:mNeon)", "result": "completely block replication"}, {"measurement": "E 1/2", "setting": "[1]", "result": 0.623, "unit": "V"}, {"measurement": "E Ox", "setting": "[1]", "result": 0.658, "unit": "V"}, {"measurement": "E Red", "setting": "[1]", "result": 0.588, "unit": "V"}, {"measurement": "ΔE", "setting": "[1]", "result": 0.0700, "unit": "V"}, {"measurement": "Cytotoxicity towards HEK293", "setting": "HEK293 cells", "result": "non-cytotoxic"}, {"measurement": "IC50", "setting": "HEK293 cells", "result": "> 100", "unit": "µM"}, {"measurement": "Solubility range", "setting": "[2]", "result": "25 to 51", "unit": "µg/mL"}, {"measurement": "IC50", "setting": "P. falciparum, NF54", "result": "3.4 ± 0.53", "unit": "µM"}]}, {"smiles": "CC1CCC2C(C)C(OC(=O)CCC(=O)NC[c-]3cccc3)OC3OC4(C)CCC1C32OO4.[Fe+2].c1cc[cH-]c1", "note": "(stereo not drawn) [Compound C4]", "values": [{"measurement": "E 1/2", "setting": "[1]", "result": 0.364, "unit": "V"}, {"measurement": "E Ox", "setting": "[1]", "result": 0.400, "unit": "V"}, {"measurement": "E Red", "setting": "[1]", "result": 0.327, "unit": "V"}, {"measurement": "ΔE", "setting": "[1]", "result": 0.0730, "unit": "V"}, {"measurement": "IC50", "setting": "HEK293 cells", "result": "36 ± 2.7", "unit": "µM"}, {"measurement": "Aqueous solubility", "setting": "[2]", "result": "5 to 10", "unit": "µM"}, {"measurement": "Solubility range", "setting": "[2]", "result": "3 to 6", "unit": "µg/mL"}, {"measurement": "IC50", "setting": "P. falciparum, NF54", "result": "0.012 ± 0.002", "unit": "µM"}, {"measurement": "Stability on HPLC", "setting": "[3]", "result": "high degree of instability"}]}, {"smiles": "CC1CCC2C(C)C(OC(=O)CCC(=O)NCCNC(=O)[c-]3cccc3)OC3OC4(C)CCC1C32OO4.[Fe+2].c1cc[cH-]c1", "note": "(stereo not drawn) [Compound C3]", "values": [{"measurement": "Parasite replication", "setting": "T. gondii (ΔKu80:mNeon)", "result": "completely block replication"}, {"measurement": "Parasite morphology", "setting": "T. gondii (ΔKu80:mNeon); 24 hours or 48 hours", "result": "novel morphology"}, {"measurement": "E 1/2", "setting": "[1]", "result": 0.616, "unit": "V"}, {"measurement": "E Ox", "setting": "[1]", "result": 0.660, "unit": "V"}, {"measurement": "E Red", "setting": "[1]", "result": 0.571, "unit": "V"}, {"measurement": "ΔE", "setting": "[1]", "result": 0.0890, "unit": "V"}, {"measurement": "Cytotoxicity towards HEK293", "setting": "HEK293 cells", "result": "non-cytotoxic"}, {"measurement": "IC50", "setting": "HEK293 cells", "result": "> 50", "unit": "µM"}, {"measurement": "Aqueous solubility", "setting": "[2]", "result": "5 to 10", "unit": "µM"}, {"measurement": "Solubility range", "setting": "[2]", "result": "3 to 6", "unit": "µg/mL"}, {"measurement": "IC50", "setting": "P. falciparum, NF54", "result": "4.9 ± 0.93", "unit": "µM"}, {"measurement": "Stability on HPLC", "setting": "[3]", "result": "high degree of instability"}]}]}
